The values that follow come from patent US9084748B2, “Biopolymer produced by fermenting the extract of soybean with folic acid and a composition containing thereof” (Damy Chemical Co., Ltd., priority 2007, dated 2015).

Experiment [1] concerns human dermal fibroblast neonatal. Description: Collagen biosynthesis promotion, human collagen type-1 ELISA. It is filed as cell-based. How it is done:
The folyl EFS and the human dermal fibroblast neonatal were incubated for 3 days, and the supernatant was isolated and collagen was quantified using a human collagen type-1 ELISA kit (Cosmo Bio Co.). A sample used in the current experiment was a 1% solution containing Composition 2 used in Preparation Example 2, and 4% of 1,3-butyleneglycol was added to the sample and preserved. Also, to compare with the effect of the folyl EFS, a folic acid solution in which the concentration of the folic acid was the same as that in the folyl EFS was prepared. In addition, 10 ng/ml of transforming growth factor-beta (TGF-β; Sigma), which is known as a promotion factor for collagen biosynthesis, was compared with the folyl EFS.
The collagen biosynthesis promotion effect of the folyl EFS is shown in the bar chart of FIG. 8. A folyl EFS produced as a cosmetic source material was a 1% liquid product. In FIG. 8, the concentration (%) of the x-axis denotes a ratio of the volume of the folyl EFS to the volume of the entire culture solution (v/v, %). The results are represented as the ratio of the value of collagen of each group with respect to the average value of collagen in a group not treated with anything when the average value of collagen in the group not treated with anything was set at 100%. […]

For experiment [2], the system named is human dermal fibroblast neonatal (HDF-N). Kind of experiment: Cell growth of fibroblast primary culture, neutral red (NR) assay. It is filed as cell-based. The following applies: fibroblasts incubated 24 hours. From the text:
It was identified through the current experiment that the folyl EFS promotes cell growth and collagen biosynthesis. A cell line used in the current experiment was a primary culture of a fibroblast (human dermal fibroblast neonatal; (HDF-N; Gibco, Cooper, M. L. et al, Biomaterials 12:243, 1991), and a culture media used was a fibroblast neonatal growth medium (FGM, KDR Co.). […] Shao-Zeng Z. et al., Cell Biology and Toxicology, 6:2, 1990) (see FIG. 7).

Experiment [3] deals with mast cells (ATCC TIB-64, P815). Kind of experiment: Quantifying histamine secreted by C48/80-stimulated mast cells (ELISA). The experiment is classed as cell-based. As to the method: This experiment was performed to identify how much the folyl EFS reduces the amount of histamine secreted when mast cells are treated with a stimulant. […] FIG. 2 is a bar chart showing the results of the experiment. […] As described above, it can be seen that the folyl EFS has an excellent anti-histamine (anti-allergic) effect.

The subject of experiment [4] is mice (BALB/C, male). Kind of experiment: Anti-allergic (anti-anaphylaxis) test, C48/80 intraperitoneally injected. It is filed as in vivo.
Protocol: C48/80 is a material that stimulates immune organs and induces acute anaphylaxis within 30 minutes when intraperperitoneally injected. In the current experiment, the number of test animals which died within a predetermined time period (24 hours) after the intraperperitoneal injection of the C48/80 was counted. In the current experiment, 10 mice (BALB/C, male) were used per group, and each group was tested for three times and the average value of the three experimental results was represented as a death ratio (%).

Regarding TGF-β, in experiment [1] (at 0.63% (v/v, %), 3 days, relative to untreated group set at 100%), the “maximum promotion rate of collagen biosynthesis” value is listed as 22%.

As for `Nc1nc2ncc(CNc3ccc(C(=O)N[C@@H](CCC(=O)O)C(=O)O)cc3)nc2c(=O)[nH]1` [folic acid], the “cell growth rate when concentration gradually increased” value in experiment [2] is “the cell growth rate was not increased accordingly”. In addition, the “collagen biosynthesis promotion effect” value in experiment [1] (folic acid solution at same folic acid concentration as in folyl EFS) is “did not occur within an error range”.

`O=C(O)c1cc(=O)c2c(OCC(O)COc3cccc4oc(C(=O)O)cc(=O)c34)cccc2o1` [sodium cromolyn]: the “ED50 value (histamine secretion inhibition)” value in experiment [3] (C48/80-stimulated mast cells, ELISA) came to 0.5%. For the same molecule, the “histamine secretion inhibition rate” value in experiment [3] (about 0.5% of the sodium cromolyn) is given as 50%. For the same molecule, the “inhibition of development of anaphylaxis” value in experiment [4] (1% sodium cromolyn) is recorded as “up to 80%”. The “inhibition of sequela of anaphylaxis” value in experiment [4] (result in words) is recorded as “did not inhibit sequela of anaphylaxis”.
